The text below walks through data of paper PMC5980259, “GI‐530159, a novel, selective, mechanosensitive two‐pore‐domain potassium (K2P) channel opener, reduces rat dorsal root ganglion neuron excitability” (British Journal of Pharmacology, 2017).

In one experiment the target is NaV1.2 (Homo sapiens, UniProt Q99250). Nature of the experiment: Sodium channel selectivity, NaV1.2. The format is cell-based. The following applies: read-out: EC50 against NaV1.2.
A further experiment addresses T1, hTRAAK (Homo sapiens, UniProt Q9NYG8).
T1 construct: expressed in transfected cells; host or cells: tsA-201, transient, pcDNA3.1 vector
T1 sequence (Q9NYG8 1-393): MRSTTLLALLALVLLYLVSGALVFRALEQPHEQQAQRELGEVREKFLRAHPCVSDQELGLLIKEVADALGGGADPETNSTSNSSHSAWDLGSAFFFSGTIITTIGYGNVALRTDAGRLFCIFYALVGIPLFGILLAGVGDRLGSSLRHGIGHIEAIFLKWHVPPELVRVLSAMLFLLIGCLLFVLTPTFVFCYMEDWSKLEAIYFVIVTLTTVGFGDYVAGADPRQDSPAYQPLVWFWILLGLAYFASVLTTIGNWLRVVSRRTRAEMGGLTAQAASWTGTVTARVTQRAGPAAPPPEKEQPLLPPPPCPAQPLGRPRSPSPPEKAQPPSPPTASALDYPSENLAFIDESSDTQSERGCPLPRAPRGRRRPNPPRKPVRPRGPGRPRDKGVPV
Briefly: Whole-cell patch clamp, transiently transfected tsA-201 cells, TRAAK. The format is cell-based. As for the experimental part: (§1) Recordings of hTREK1, hTREK1∆N, hTREK2, hTRAAK and […] currents from transiently transfected tsA‐201 cells were performed using methods as described in Veale and Mathie (2016). Briefly, the pcDNA3.1 vector was cloned with the gene of interest, and these vectors and a similar vector containing GFP were incorporated into the tsA201 cells (0.5 μg per well) using the calcium phosphate method. The cells were incubated for 6–12 h at 37°C in […] and 5% carbon dioxide. Cells were then washed using a PBS solution and used for experiments after 24 h.
(§2) Currents were recorded using whole‐cell patch‐clamp using an Axopatch 1D amplifier. Cells were placed in a recording chamber filled with an external medium composed of 145 mM, NaCl, 2.5 mM KCl, 3 mM MgCl2, 1 mM CaCl2 and 10 mM HEPES (pH to 7.4, using NaOH). The internal medium used in the glass pipette comprised 150 mM KCl, 3 mM MgCl2, 5 mM (or 0.1 mM) EGTA and 10 mM HEPES (pH to 7.4, using KOH). GI‐530159 was applied by bath perfusion. Currents were recorded and analysed using pCLAMP 10.2 software Microsoft Excel. The voltage protocol used for recording current through K2P channels was as previously described (Veale and Mathie, 2016). For analysis, we measured the current difference between the −80 and −40 mV steps.
(In general: The patch-clamp technique gives a direct electrical read-out from membranes.)

A further experiment has as its target T2, K2P18.1 (TRESK) (Homo sapiens, UniProt Q7Z418).
T2 construct: expressed in transfected cells
Briefly: Manual patch clamp in recombinant cell lines, TRESK. The format is cell-based. The settings on record: 10 μM; n = 4.

The target in experiment [1] is T3, human TREK1 single channels (Homo sapiens, UniProt O95069).
T3 construct: expressed in transfected cells
Briefly: Single-channel recording, excised inside-out patches from HEK293 cells. The format is biochemical. The settings on record: 10 μM on intracellular side, +60 mV. The protocol: Human TREK1 single channels were recorded in excised inside‐out membrane patches using an Axopatch 200B patch‐clamp amplifier and pCLAMP 10 software. Inside‐out membrane patches were excised from HEK293 cells expressing human TREK1 channels. Sylguard® 184‐coated glass pipettes with resistance around 10–15 MΩ were used. Pipette and bath compositions for inside‐out patches were opposite to those used in voltage‐clamp, that is, the pipette solution on the extracellular face of the channels contained 130 mM K and the bath solution on the intracellular face of the channel contained 4.7 mM K. Channel activities were recorded at +60 mV. The action of a hTREK1 opener was tested by addition to the intracellular solution. Single‐channel records were filtered with an eight‐pole Bessel filter (model LHBF‐48X, npi electronic GmbH, Tamm, Germany) at a corner frequency (fc) of 2 kHz and acquired using a DigiData 1440A interface and pCLAMP 10 software at a sampling rate of 20 kHz. Single‐channel traces were generated without further filtering.

The next experiment addresses Kv7.3 (Homo sapiens, UniProt O43525). Briefly: Rb+ efflux assay, Kv7.3. The format is cell-based.
Another experiment deals with T4, hTREK1 (Homo sapiens, UniProt O95069).
T4 sequence (O95069 1-426): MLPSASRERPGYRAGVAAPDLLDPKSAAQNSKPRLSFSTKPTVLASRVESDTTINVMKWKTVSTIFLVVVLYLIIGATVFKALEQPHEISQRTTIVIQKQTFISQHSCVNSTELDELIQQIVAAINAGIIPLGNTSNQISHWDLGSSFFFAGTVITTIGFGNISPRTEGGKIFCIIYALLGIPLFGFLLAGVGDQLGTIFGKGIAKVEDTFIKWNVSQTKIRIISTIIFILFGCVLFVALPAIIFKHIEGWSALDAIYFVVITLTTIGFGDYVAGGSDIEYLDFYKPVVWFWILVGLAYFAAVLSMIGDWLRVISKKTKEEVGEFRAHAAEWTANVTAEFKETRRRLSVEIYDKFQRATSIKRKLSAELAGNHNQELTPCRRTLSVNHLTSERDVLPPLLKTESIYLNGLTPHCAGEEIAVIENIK
Nature of the experiment: Automated whole-cell patch clamp (Qpatch), CHO–TREK1 cells. The format is cell-based. Also noted: expressed in transfected cells. The following applies: 1 μM; stably transfected CHO cells. The protocol:
Automated patch‐clamp studies were performed with the Qpatch Sophion Bioscience A/S (Ballerup, Denmark) automated patch‐clamp platform. Sixteen‐well Qplates were loaded with CHO cells stably expression human recombinant TREK1 (CHO–TREK1 cells) in external buffer containing (in mM) 148 NaCl, 5 KCl, 1 CaCl2, 1 MgCl2, 10 HEPES and 10 glucose. Internal recording solution was (in mM) 100 K gluconate, 40 KCl, 1 MgCl2, 10 BAPTA, 10 HEPES and 1 MgATP.
Supplementary Information
Supplementary Figure S1: Activation of hTREK1 current by GI-530159 in automated patch […]
Figure S1: Activation of hTREK1 current by GI-530159 in automated patch recordings.
A) Human TREK1 current elicited by pulse protocol shown recorded on Qpatch 16 automated patch clamp platform after administration of 0.1% DMSO vehicle, 1 µM GI-530159 or after washout with 0.1% DMSO. B) Time course of TREK1 current amplitude recorded at 0 mV on Qpatch platform before during and after washout of 1 µM GI-530159.
(1 picture or pasted object on this page, not shown here)

The target of the next experiment is T5, hTREK1∆N (Homo sapiens, UniProt O95069).
T5 construct: expressed in transfected cells; host or cells: tsA-201, transient, pcDNA3.1 vector
Nature of the experiment: Whole-cell patch clamp, transiently transfected tsA-201 cells, TREK1ΔN. The format is cell-based. The following applies: 1 μM, n = 5. The protocol: as §1, §2

One may read the EC50 as the midpoint of the concentration-response curve.

T2 sequence (Q7Z418 whole entry, species assumed): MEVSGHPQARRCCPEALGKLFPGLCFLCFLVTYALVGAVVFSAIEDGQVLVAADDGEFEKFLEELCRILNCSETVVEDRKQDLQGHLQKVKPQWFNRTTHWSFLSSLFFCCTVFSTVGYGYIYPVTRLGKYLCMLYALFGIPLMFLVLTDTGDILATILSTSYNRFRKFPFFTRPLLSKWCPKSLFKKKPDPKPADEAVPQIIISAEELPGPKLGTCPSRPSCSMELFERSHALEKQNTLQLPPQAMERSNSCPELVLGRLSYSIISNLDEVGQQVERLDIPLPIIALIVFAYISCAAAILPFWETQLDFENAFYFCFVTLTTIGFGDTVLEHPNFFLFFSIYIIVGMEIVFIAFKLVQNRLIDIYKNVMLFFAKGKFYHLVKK
Sequence of NaV1.2 (Q99250 whole entry): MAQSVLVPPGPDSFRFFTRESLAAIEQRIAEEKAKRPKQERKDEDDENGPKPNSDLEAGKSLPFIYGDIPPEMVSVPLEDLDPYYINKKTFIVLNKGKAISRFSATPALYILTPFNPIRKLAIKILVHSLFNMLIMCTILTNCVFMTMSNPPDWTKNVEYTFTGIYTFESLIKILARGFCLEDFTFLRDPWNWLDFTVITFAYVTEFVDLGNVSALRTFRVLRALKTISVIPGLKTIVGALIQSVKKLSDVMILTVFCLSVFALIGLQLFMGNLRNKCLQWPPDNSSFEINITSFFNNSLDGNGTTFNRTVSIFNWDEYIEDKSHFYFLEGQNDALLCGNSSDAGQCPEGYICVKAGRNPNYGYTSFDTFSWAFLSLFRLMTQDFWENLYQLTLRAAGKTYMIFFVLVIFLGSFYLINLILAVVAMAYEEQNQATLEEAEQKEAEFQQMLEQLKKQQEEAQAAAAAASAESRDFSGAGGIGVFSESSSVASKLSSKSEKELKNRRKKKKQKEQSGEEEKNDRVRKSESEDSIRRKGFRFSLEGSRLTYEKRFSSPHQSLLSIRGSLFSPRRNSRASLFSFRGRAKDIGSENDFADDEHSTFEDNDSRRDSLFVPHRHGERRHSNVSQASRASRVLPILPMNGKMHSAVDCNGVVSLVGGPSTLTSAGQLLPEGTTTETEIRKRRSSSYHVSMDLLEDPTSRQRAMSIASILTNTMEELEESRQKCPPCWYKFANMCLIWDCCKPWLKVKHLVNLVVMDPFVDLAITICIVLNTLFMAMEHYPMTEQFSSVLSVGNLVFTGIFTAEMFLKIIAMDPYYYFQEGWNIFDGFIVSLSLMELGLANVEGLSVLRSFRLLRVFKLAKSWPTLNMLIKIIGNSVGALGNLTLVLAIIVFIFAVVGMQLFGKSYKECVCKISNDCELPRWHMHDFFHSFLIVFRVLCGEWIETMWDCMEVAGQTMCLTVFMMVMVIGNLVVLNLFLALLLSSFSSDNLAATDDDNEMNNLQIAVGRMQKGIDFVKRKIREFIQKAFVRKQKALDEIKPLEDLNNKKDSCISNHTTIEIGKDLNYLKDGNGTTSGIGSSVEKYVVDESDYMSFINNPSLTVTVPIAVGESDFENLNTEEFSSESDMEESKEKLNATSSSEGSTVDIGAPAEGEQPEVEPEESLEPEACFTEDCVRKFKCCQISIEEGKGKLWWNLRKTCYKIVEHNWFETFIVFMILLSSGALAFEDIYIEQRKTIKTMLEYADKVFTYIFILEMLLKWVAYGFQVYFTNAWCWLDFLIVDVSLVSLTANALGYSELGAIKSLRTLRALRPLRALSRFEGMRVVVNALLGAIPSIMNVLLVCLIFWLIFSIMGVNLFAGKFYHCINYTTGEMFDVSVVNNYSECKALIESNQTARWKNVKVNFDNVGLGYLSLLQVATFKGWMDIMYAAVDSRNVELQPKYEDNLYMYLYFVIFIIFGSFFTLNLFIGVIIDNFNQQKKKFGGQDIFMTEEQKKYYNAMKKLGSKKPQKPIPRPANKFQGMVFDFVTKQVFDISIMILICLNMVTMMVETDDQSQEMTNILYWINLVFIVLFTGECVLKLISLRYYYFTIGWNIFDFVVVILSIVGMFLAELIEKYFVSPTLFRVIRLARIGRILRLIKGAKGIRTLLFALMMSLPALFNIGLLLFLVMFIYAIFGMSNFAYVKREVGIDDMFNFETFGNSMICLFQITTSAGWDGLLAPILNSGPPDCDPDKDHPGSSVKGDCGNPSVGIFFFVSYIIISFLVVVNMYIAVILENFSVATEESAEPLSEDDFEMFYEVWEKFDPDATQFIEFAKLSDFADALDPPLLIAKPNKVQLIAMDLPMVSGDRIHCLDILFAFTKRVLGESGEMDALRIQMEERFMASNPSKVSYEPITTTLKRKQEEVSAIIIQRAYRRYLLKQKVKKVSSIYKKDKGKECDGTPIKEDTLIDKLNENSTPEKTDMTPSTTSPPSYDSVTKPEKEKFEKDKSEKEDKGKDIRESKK

With `Nc1ccc(Oc2ccc(C(c3ccc(Oc4ccc(N)cc4)cc3)(C(F)(F)F)C(F)(F)F)cc2)cc1` [GI‐530159, 4,4′‐(hexafluoroisopropylidene)bis(p‐phenyleneoxy)dianiline], the EC50 at NaV1.2 is above 100 µM. The “enhancement of TRAAK current” value on hTRAAK (1 μM, tsA-201, n = 7) came out at 2 ± 10%. The “effect on TRAAK channels” value on hTRAAK (10 μM) is on record as “no detectable effect”. Besides, the “effect on K2P18.1 (TRESK) current” value on K2P18.1 (TRESK) is given as −2.0 ± 3.5%. Besides, the single-channel current amplitude result in experiment [1] is reported as “not altered”. The molecule further displayed a channel open probability in experiment [1] (exemplar recording, 0.009 before application) of 0.025. Further, the “activator effect on Kv7.3” value at Kv7.3 is “no activator effects”. Further, the “effect on hTREK1 current, Qpatch” value at hTREK1 is recorded as “effective at reversibly enhancing current”. In addition, the “enhancement of TREK1ΔN current” value on hTREK1∆N was determined as 377 ± 57%.
